Work on `CN1CCN(C(=O)O[C@H]2c3nccnc3C(=O)N2c2ccc(Cl)cn2)CC1` yielded a solubility (mole fraction) (in acetone, 288.15 K) of 0.0013, a solubility (mole fraction) (in acetone, 293.15 K) of 0.00153 and a solubility (mole fraction) (in acetone, 298.15 K) of 0.0019. It also gave a solubility (mole fraction) (in acetone, 303.15 K) of 0.00229, a solubility (mole fraction) (in acetone, 308.15 K) of 0.00269 and a solubility (mole fraction) (in acetone, 313.15 K) of 0.00318. For the same compound, the solubility (mole fraction) (in acetone, 318.15 K) was 0.0037, the solubility (mole fraction) (in ethanol, 288.15 K) was 0.00023 and the solubility (mole fraction) (in ethanol, 293.15 K) was 0.000282. For the same compound, the solubility (mole fraction) (in ethanol, 298.15 K) was 0.00036, the solubility (mole fraction) (in ethanol, 303.15 K) was 0.000431 and the solubility (mole fraction) (in ethanol, 308.15 K) was 0.000526. For the same compound, the solubility (mole fraction) (in ethanol, 313.15 K) was 0.000672, the solubility (mole fraction) (in ethanol, 318.15 K) was 0.000851 and the solubility (mole fraction) (in ethanol, 323.15 K) was 0.000996. For the same compound, the solubility (mole fraction) (in ethanol, 328.15 K) was 0.0012, the solubility (mole fraction) (in isopropyl acetate, 288.15 K) was 0.000682 and the solubility (mole fraction) (in isopropyl acetate, 293.15 K) was 0.000796. The solubility (mole fraction) (in isopropyl acetate, 298.15 K) was 0.000964, the solubility (mole fraction) (in isopropyl acetate, 303.15 K) was 0.0012 and the solubility (mole fraction) (in isopropyl acetate, 308.15 K) was 0.0014. For the same compound, the solubility (mole fraction) (in isopropyl acetate, 313.15 K) was 0.00163, the solubility (mole fraction) (in isopropyl acetate, 318.15 K) was 0.00182 and the solubility (mole fraction) (in isopropyl acetate, 323.15 K) was 0.00203. It also gave a solubility (mole fraction) (in isopropyl acetate, 328.15 K) of 0.00226, a solubility (mole fraction) (in methyl acetate, 288.15 K) of 0.00187 and a solubility (mole fraction) (in methyl acetate, 293.15 K) of 0.00217. For the same compound, the solubility (mole fraction) (in methyl acetate, 298.15 K) was 0.0025, the solubility (mole fraction) (in methyl acetate, 303.15 K) was 0.00303 and the solubility (mole fraction) (in methyl acetate, 308.15 K) was 0.00356. It also gave a solubility (mole fraction) (in methyl acetate, 313.15 K) of 0.00414, a solubility (mole fraction) (in methyl acetate, 318.15 K) of 0.00484 and a solubility (mole fraction) (in n-propanol, 288.15 K) of 0.00013. It also gave a solubility (mole fraction) (in n-propanol, 293.15 K) of 0.000172, a solubility (mole fraction) (in n-propanol, 298.15 K) of 0.000215 and a solubility (mole fraction) (in n-propanol, 303.15 K) of 0.000292. It also gave a solubility (mole fraction) (in n-propanol, 308.15 K) of 0.000382, a solubility (mole fraction) (in n-propanol, 313.15 K) of 0.000493 and a solubility (mole fraction) (in n-propanol, 318.15 K) of 0.00059. For the same compound, the solubility (mole fraction) (in n-propanol, 323.15 K) was 0.00079, the solubility (mole fraction) (in n-propanol, 328.15 K) was 0.00101 and the solubility (mole fraction) (in n-propyl acetate, 288.15 K) was 0.000851. It also gave a solubility (mole fraction) (in n-propyl acetate, 293.15 K) of 0.00102, a solubility (mole fraction) (in n-propyl acetate, 298.15 K) of 0.00124 and a solubility (mole fraction) (in n-propyl acetate, 303.15 K) of 0.00153. The solubility (mole fraction) (in n-propyl acetate, 308.15 K) was 0.00183, the solubility (mole fraction) (in n-propyl acetate, 313.15 K) was 0.00208 and the solubility (mole fraction) (in n-propyl acetate, 318.15 K) was 0.00239. The solubility (mole fraction) (in n-propyl acetate, 323.15 K) was 0.0027 and the solubility (mole fraction) (in n-propyl acetate, 328.15 K) was 0.00303.

Source: BigSolDB 2.1
